Measurements published in US20140090094A1, “MODULATORS OF SLC22A7” (BAYER INTELLECTUAL PROPERTY GmbH, priority 2011, published 2014).

Columns and labels:
OAT2r = biological target: T1, OAT2r (Rattus norvegicus, UniProt Q5RLM2); experiment: efflux of glutamate from OAT2r-expressing 293 cells (LC-MS/MS); format: cell-based
T1 construct: expressed in transfected cells
T1 sequence (Q5RLM2 1-535): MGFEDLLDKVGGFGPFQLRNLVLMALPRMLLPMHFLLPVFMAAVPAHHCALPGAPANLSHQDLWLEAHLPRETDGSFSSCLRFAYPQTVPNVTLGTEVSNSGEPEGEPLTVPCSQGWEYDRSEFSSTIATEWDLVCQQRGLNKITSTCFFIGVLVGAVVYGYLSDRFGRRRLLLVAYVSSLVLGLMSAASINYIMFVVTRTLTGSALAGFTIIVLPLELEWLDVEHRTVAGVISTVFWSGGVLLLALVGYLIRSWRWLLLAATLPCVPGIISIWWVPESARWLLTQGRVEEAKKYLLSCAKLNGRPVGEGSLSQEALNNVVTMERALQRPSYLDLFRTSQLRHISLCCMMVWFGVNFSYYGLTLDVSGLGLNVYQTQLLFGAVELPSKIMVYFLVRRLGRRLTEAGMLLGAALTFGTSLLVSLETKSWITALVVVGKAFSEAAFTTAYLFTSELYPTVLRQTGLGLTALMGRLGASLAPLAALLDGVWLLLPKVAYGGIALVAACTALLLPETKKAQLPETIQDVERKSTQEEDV
Procedure: To test this hypothesis, 293 cells with or without expression of OAT2r were incubated 10 min in uptake buffer; then, the glutamate content of a buffer sample was determined by LC-MS/MS.
(§1) For measurement of solute uptake, cells were grown in surface culture on 60 mm polystyrol dishes (Nunclon 150288, Nunc, Roskilde, Denmark) precoated with 0.1 g/l poly-L-ornithine in 0.15 M boric acid-NaOH, pH 8.4. Cells were used for uptake experiments at a confluence of at least 70%. Uptake was measured at 37° C. Uptake buffer contains 125 mmol/l NaCl, 25 mmol/l HEPES-NaOH pH 7.4, 5.6 mmol/l (+)glucose, 4.8 mmol/l KCl, 1.2 mmol/l KH2PO4, 1.2 mmol/l CaCl2, and 1.2 mmol/l MgSO4. In glutamate efflux experiments, uptake buffer without KH2PO4 was used to avoid MS interference. After preincubation for at least 20 minutes in 4 ml of uptake buffer, the buffer was replaced with 2 ml of substrate in uptake buffer. The total substrate concentration if not indicated otherwise was 0.1 μmol/l for radiotracer assays and 10 μmol/l for unlabeled compounds. Incubation was stopped after 1 min by rinsing the cells four times each with 4 ml ice-cold uptake buffer. Radioactivity was determined, after cell lysis with 0.1% v/v Triton X-100 in 5 mmol/l TRIS-HCl pH 7.4, by liquid scintillation counting. For LCelectrospray ionization-MS/MS analysis, cells were lysed with methanol and stored at −20° C.

293 cells = experiment: uptake into uninduced control 293 cells (expression off); format: cell-based, human; settings: for clearance kin: 10 μmol/l unlabeled substrate
Procedure: Time course of trigonelline uptake. Cells grown in dishes were incubated at 37° C. with 10 μmol/l unlabeled trigonelline in uptake buffer for the indicated periods, washed, and lysed. The function for non-linear regression was y=y0+kin/kout*cout*(1−exp(−kout*x)); parameter y0 allows for trigonelline accumulation from the culture medium.
293 cells (ATCC CRL-1573; also known as HEK-293 cells), a transformed cell line derived from human embryonic kidney, were grown at 37° C. in a humidified atmosphere (5% CO2) in plastic culture flasks (Falcon 3112, Becton Dickinson, Heidelberg, Germany). The growth medium was Dulbecco's Modified Eagle Medium (Life Technologies 31885-023, Invitrogen, Karlsruhe, Germany) supplemented with 10% fetal calf serum (PAA Laboratories, Cölbe, Germany). Medium was changed every 2-3 days and the culture was split every 5 days. Stably transfected cell lines were generated as reported previously (Bach M et al. FEBS Journal 2007; 274:783-790.). As there is no integration of vector pEBTetD into the genome, clonal isolation of transfected cells is not necessary; we thus use cell pools rather than single cell clones. Cell culture medium always contained 3 μg/ml puromycin (PAA Laboratories) to ascertain plasmid maintenance. To turn on protein expression, cells were cultivated for at least 20 h in regular growth medium supplemented with 1 μg/ml doxycycline (195044, MP Biomedicals, Eschwege, Germany).
as §1
After centrifugation (1 min, 16000×g, 20° C.) of thawed lysates, 100 μl of the supernatant was mixed with either 10 μl unlabeled MPP+ iodide (0.5 ng/μl) or biphenyl-4-carboxylic acid (Sigma-Aldrich) as internal standard. Of this mixture, […] were analyzed by LCMS/MS on a triple quadrupole mass spectrometer (4000 Q TRAP, Applied Biosystems, Darmstadt, Germany). […] Atmospheric pressure ionization with positive or negative electrospray was used. For quantification (scan time 150 ms), the optimal collision energy for argon-induced fragmentation in the second quadrupole was determined for each analyte. […] Linear calibration curves were constructed from at least six standards which were prepared using control cell lysates as solvent. Sample analyte content was calculated from the analyte response ratio and the slope of the calibration curve, obtained by linear regression. With LC-MS quantitation, solute content of cell lysates was determined for 4 conditions (paired dishes, incubation time 1 min): a) transporter expression on, uptake buffer; b) expression off, uptake buffer; c) expression on, substrate in uptake buffer; d) expression off, substrate in uptake buffer. Acute uptake mediated by heterologously expressed carrier was then calculated as (c−a)−(d−b). This approach takes into account endogenous solute content and non-specific uptake.

[1] = time course, uninduced control cells

| SMILES | release of glutamate upon expression of OAT2 (in words) (OAT2r; 10 min in uptake buffer, without extracellular exchange substrate) | intracellular content (293 cells; 10 μmol/l unlabeled orotic acid, after 60 min, cells lacking the transporter) [nmol/mg protein] | cell content directly after washing (293 cells; 1 h, 37° C. preloading with 100 μmol/l 3H-orotic acid, uninduced control cells, n=4) [nmol/mg protein] | non-specific uptake into control cells, slope (293 cells; saturation experiment, 1 min, expression off) [μl min-1 mg protein-1] | clearance kin (293 cells; [1]) [μl min-1 mg protein-1] | kout (293 cells; time course, unlabeled orotic acid, expression off) [min⁻¹] | effect on efflux of glutamate (in words) (OAT2r; 1 mmol/l compound in uptake buffer, 10 min) |
| --- | --- | --- | --- | --- | --- | --- | --- |
| N[C@@H](CCC(=O)O)C(=O)O [glutamate] | markedly increased release |  |  |  |  |  |  |
| O=C(O)c1cc(=O)[nH]c(=O)[nH]1 [orotic acid] |  | 0.05 | 3.5±0.1 | 0.56 | 0.58±0.12 | 0.12 ± 0.03 | strongly trans-stimulated efflux of glutamate |
| C[n+]1cccc(C(=O)[O-])c1 [trigonelline] |  |  |  |  | 0.11±0.01 |  |  |
